From patent US10722575B2, “Use of 1,3-diphenylprop-2-en-1-one derivatives for treating liver disorders” (GENFIT, priority 2009, dated 2020)

How the values were obtained:
Assay type in all cases: in vivo
hApoE2 KI mice = hApoE2 KI mice on Western diet, 2 weeks, histological scores of liver steatosis and intralobular inflammation; details: 30 mg/kg/day
Description: (§1) Animals were fed a Western diet (20% saturated fat and 0.2% cholesterol, Harlan Teklad TD88137) during 2 weeks in the first study, that involved the daily administration of Cpd 29 (at 30 mg/kg/day by oral gavage), and during 6 weeks in the second study, that involved the daily administration of Compound 1 of WO 2007147879 (Cpd1, at 30 mg/kg/day by oral gavage). Control animals were treated with vehicle only (Carboxymethlycellulose 1%+Tween-80 0.1%). Animals had access to food and water ad libitum.
(§2) At the end of the studies, the animals were weighed and sacrificed under anesthesia. Blood was collected from the retro-orbital sinus; plasma was obtained by centrifugation (4 000 rpm, at 4° C. for 15 min) and subsequently frozen and stored at −20° C. Tissues and livers were isolated and snap-frozen in liquid nitrogen and stored at −80° C. for subsequent analysis (gene expression and biochemistry) or fixed in 4% paraformaldehyde for histology.
Formalin-fixed liver tissue was processed, and 5-μm-thick paraffin sections were stained with Hematoxylin and Eosin. The histological analysis of stained liver sections was carried out in blind conditions to quantify liver steatosis and liver intralobular inflammation. Liver steatosis was scored from 0 to 3 as follows: 0 (very slightly affected), 1 (slightly affected), 2 (moderately affected), 3 (highly affected). Liver intralobular inflammation was also scored depending on the number of inflammatory foci counted by field of observation as follows: 0 (<1 focus/field), 1 (1 to 2 foci/field), 2 (2 to 4 foci/field) 3 (more than 4 foci/field).
Exemplary compounds of the General Formula (I) were tested in vivo in a high fat diet mice model. hApoE2 KI and hApoE2 KI/PPARalpha KO (“humanized” ApoE2 knock-in mice deficient for the mPPARalpha gene) were fed a Western diet and daily treated with the Cpd 29 at 30 mg/kg/day during 2 weeks. At the end of the protocol, liver steatosis and intra-lobular inflammation were evaluated in the control and treated mice by means of histological analysis and specific scores.

ob/ob mice = assay: ob/ob mice, hepatic gene expression by quantitative RT-PCR after 26 days of treatment; details: 26 days daily gavage, Cpd 29 10 and 30 mg/kg/day, Fenofibrate 100 mg/kg/day, Rosiglitazone 10 mg/kg/day
Description: The compounds of the General Formula (I) were tested in a murine model of type II diabetes, the ob/ob mice. Mice were daily orally treated with the Compound 29 of WO 2004/005233 at two different doses (10 and 30 mg/kg/day) and with the prototypical PPARalpha- and PPARgamma-specific reference compounds (Fenofibrate at 100 mg/kg/day and Rosiglitazone at 10 mg/kg/day respectively). After 26 days of treatment, animals were sacrificed and plasma samples and livers were harvested. Hepatic expression of genes that are known to be implicated in the liver inflammation process was evaluated and plasmatic levels of ALAT were measured (Panels A-C). […]
Male ob/ob mice (8 weeks of age) were purchased from Charles River (L'Arbresle, France) and were kept on a 12-hour light/dark cycle at a constant temperature of 20±3° C. After a 1 week acclimation, mice were separated in groups of 8 animals selected such that the distribution of their body weight and their 6 hours fasting glycemia determined before the experiment were uniform. […]
Total RNA was isolated from frozen livers using the NucleoSpin® 96 RNA kit (Macherey Nagel), according to the manufacturer's instructions. […] Quantitative PCR was then carried out using the MyiQ Single-Color Real-Time PCR Detection System (Biorad). […]

[1] = test system: hApoE2 KI/PPARalpha KO mice; assay: hApoE2 KI/PPARalpha KO mice on Western diet, hepatic gene expression by quantitative RT-PCR; details: 30 mg/kg/day by gavage, 6 weeks
Description: The compounds of the General Formula (I) were tested in vivo in a high fat diet mice model. Dyslipidemic “humanized” hApoE2 KI deficient for PPARalpha were fed a Western diet and treated during 6 weeks. The compounds of interest, including the Compound 29 of WO 2004/005233 at 30 mg/kg/day and the Compound 1 of WO 2007/147879 at 30 mg/kg/day were orally administrated by gavage. At the end of the protocol, animals were sacrificed, livers were harvested and the hepatic expression of relevant genes implicated in the liver inflammation and the fibrosis processes were evaluated by quantitative RT-PCR. In parallel, liver triglycerides contents were evaluated (Panels A-D). Statistical analysis was performed as indicated for FIG. 1.
as §1, §2
Total RNA was isolated from frozen livers using the NucleoSpin® 96 RNA kit (Macherey Nagel), according to the manufacturer's instructions. Reverse transcription was performed on 1 μg of total RNA by action of 1 μl of MMLV-RT enzyme (Invitrogen) during 1 hour at 37° C. in a total volume of 30 μl. The reaction conditions were 1× buffer (Invitrogen), 1.5 mM DTT (Invitrogen), 0.18 mM dNTPs (Promega), 200 ng pdN6 (Amersham), 30U RNase inhibitor (Promega). Quantitative PCR was then carried out using the MyiQ Single-Color Real-Time PCR Detection System (Biorad). Briefly PCR reactions were performed in 96 well plates on 5 μl of diluted reverse transcription mix using the iQ SYBR Green Supermix kit. The reaction conditions were: 25 μl of volume reaction, 3 mM of MgCl2, and 0.5 μl of each reverse and forward primer solutions (10 pMol), Tm of 60° C.
The quantity of fluorescence emitted is directly proportional to the quantity of complementary DNA present at the start of the reaction and amplified during the PCR. The relative levels of expression were determined using the standard curve for each transcript. The results were then normalized in regard to the signals obtained with the 36B4 control (a reference transcript for hepatic gene expression). The induction factor, i.e. the ratio between the relative signal induced by the compound according to the invention and the average of the values relating to the control group, was then calculated for each sample. The higher this factor, the more the compound promotes target gene expression. The final result is depicted as the average of the induction values in each experimental group.
In another study, the liver-specific anti-inflammatory and anti-fibrotic properties effects of Cpd 29 and Compound 1 of WO 2007/147879 (Cpd 1) were evaluated in the hApoE2 KI/PPARalpha KO mice that were fed a Western diet and daily treated with the selected compounds during 6 weeks.

Substance: 1-[4-methylthiophenyl]-3-[3,5-dimethyl-4-carboxydimethylmethyloxyphenyl]prop-2-en-1-one [Cpd 29]
- development of liver inflammation induced by the diet (hApoE2 KI mice; hApoE2 KI mice, Western diet): inhibits
- development of liver steatosis induced by the diet (hApoE2 KI mice; hApoE2 KI mice, Western diet): inhibits
- Liver Inflammation (score) 0 (hApoE2 KI mice; share of group with score 0 (<1 focus/field), hApoE2 KI): 100%
- Liver Steatosis (score) 0 (hApoE2 KI mice; share of group with score 0 (very slightly affected), hApoE2 KI): 83%
- Liver Inflammation (score) 1 (hApoE2 KI mice; share of group with score 1 (1 to 2 foci/field), hApoE2 KI): 0%
- Liver Steatosis (score) 1 (hApoE2 KI mice; share of group with score 1 (slightly affected), hApoE2 KI): 17%
- Liver Inflammation (score) 2 (hApoE2 KI mice; share of group with score 2 (2 to 4 foci/field), hApoE2 KI): 0%
- Liver Steatosis (score) 2 (hApoE2 KI mice; share of group with score 2 (moderately affected), hApoE2 KI): 0%
- Liver Steatosis (score) 3 (hApoE2 KI mice; share of group with score 3 (highly affected), hApoE2 KI): 0%
- Liver Inflammation (score) 3 (hApoE2 KI mice; share of group with score 3 (more than 4 foci/field), hApoE2 KI): 0%
- hepatic expression of TNFalpha (ob/ob mice; FIG. 2A): inhibited the expression of this cytokine in a dose-response manner
- hepatic expression level of TGFbeta (ob/ob mice; FIG. 2B): inhibited the expression of this growth factor in a dose-response manner
- liver expression of TNFα ([1]; FIG. 4A): inhibited
- liver expression of TGFβ ([1]; FIG. 4B): inhibited
- liver expression of collagen ([1]; FIG. 4C): inhibited
